Experimental data as given in patent US7935708B2, “Dihydropyrazolopyrimidinone derivatives” (MSD K.K., priority 2006, dated 2011).

Tested on: Human colon cancer cells (WiDr)
Experiment: Checkpoint escape effect in gemcitabine-treated WiDr cells (phosphorylated histone H3-positive cells)
Assay type: cell-based
Details: gemcitabine 100 nM 24 hours, then test compound with nocodazole 8 hours
Description: Pharmaceutical Text 3 (Method of Determining Drug Potency in Cells (Checkpoint-Removing Effect))
Fetal bovine serum (FBS) was obtained from Morgate; DMEM was from Invitrogen; gemcitabine was from Nippon Eli Lilly; nocodazole and 4′,6-diamidino-2-phenylindole were from Sigma; rabbit anti-phosphorylated histone H3 antibody was from Upstate; and fluorescence-labeled (Alexa Fluor 488) anti-rabbit IgG antibody was from Molecular Probe.
Human colon cancer cells (WiDr) were obtained from American Type Culture Collection (ATCC).
c) Method of Effect Determination:
The cells were suspended in DMEM containing 10% FBS, and the cell suspension was applied to a poly-D-lysine-coated 96-well plastic plate (bought from Becton Dickinson) in an amount of 2000 cells/100 μL/well, in which the cells were incubated overnight in 5% CO2-95% air at 37° C. Gemcitabine was dissolved in phosphate-buffered saline (PBS), and diluted with DMEM containing 10% FBS, and then this was applied to the plate on which the cells had been previously sowed, in an amount of 50 μL/well in such a manner that the final concentration of gemcitabine could be 100 nM. Then, the cells were incubated for 24 hours at 37° C. in 5% CO2-95% air. The test compound was stepwise diluted with dimethylsulfoxide, then diluted with 1200 nM nocodazole-containing DMEM containing 10% FBS, and applied to the plate on which the gemcitabine-treated cells had been sowed, in an amount of 50 μL/well. […] Next, this was washed with PBS, and a solution containing 4′,6-diamidino-2-phenylindole that had been diluted with 1% BSA/PBS to have a concentration 10 μg/mL and a fluorescence-labeled (Alexa Fluor 488) anti-rabbit IgG antibody that had been diluted 250-fold was added to it in an amount 50 μL/well, and reacted in a dark place at room temperature for 60 minutes. Finally, this was washed with PBS, and its fluorescence intensity was determined to calculate the ratio of the phosphorylated histone H3-positive cells (cells that had been in a cell division cycle through removal of checkpoint). […]

EC50	Structure (SMILES)
268 nM	C=CCn1c(=O)c2cnc(Nc3ccc(N4CCN(C)CC4)c(CO)c3)nc2n1-c1ccsc1 [Example 3, 2-allyl-6-{[3-(hydroxymethyl)-4-(4-methylpiperazin-1-yl)phenyl]amino}-1-(3-thienyl)-1,2-dihydro-3H-pyrazolo[3,4-d]pyrimidin-3-one]
100 nM	C=CCn1c(=O)c2cnc(Nc3ccc(N4CCN(C)CC4)cc3)nc2n1-c1cccc(N2CCN(C)C2=O)n1 [Example 148, 2-allyl-1-[6-(3-methyl-2-oxoimidazolidin-1-yl)pyridin-2-yl]-6-{[4-(4-methylpiperazin-1-yl)phenyl]amino}-1,2-dihydro-3H-pyrazolo[3,4-d]pyrimidin-3-one]
